From patent US11535597B2, “Photoreactive ligands and uses thereof” (The Scripps Research Institute, priority 2017, dated 2022)

Target: T1, BAX (Homo sapiens, UniProt Q07812)
T1 construct: endogenous in cells; host or cells: human cells (HEK293T; a subset of probes also in K562)
Experiment: Mapping of FFF probe-modified peptide on BAX
Format: binding
Conditions: for Labeled Peptide: residues of probe-labeled peptide
Experimental: Preparation and analysis was adapted from methods previously reported. In brief, for global mapping of fragment probe-modified peptides, separate 10 cm dishes of cells were treated with probes (200-250 μM) in 3.0 mL of DMEM (serum-free) and (if applicable) competitor ligands, proteomes harvested and subjected to click chemistry conditions with either light or heavy isotopically labeled biotin-TEV-azide (10 μL of 5 mM stocks in DMSO, final concentration=100 μM), TCEP, ligand and CuSO4 as detailed above. The samples were allowed to react for 1 h at which point the samples were centrifuged (16,000 g, 5 min, 4° C.). The resulting pellets were sonicated in ice-cold methanol (500 μL) and the resuspended light- and heavy-labeled samples were then combined and centrifuged (16,000 g, 5 min, 4° C.). The pellets were then solubilized in PBS containing 1.2% SDS (1 mL) with sonication and heating (5 min, 95° C.). Samples were transferred to falcon tubes containing DPBS (5 mL), to which a 100 μL of streptavidin-agarose beads slurry was added. After incubation, the beads (3 hr) were pelleted by centrifugation (1,400 g, 3 min) and were washed (2×10 mL PBS and 2×10 mL water). The beads were transferred to eppendorf tubes with 1 mL DPBS, centrifuged (1,400 g, 3 min), and resuspended in PBS containing 6 M urea. To this was added 10 mM DTT (25 μL of a 200 mM stock in water) and the beads were incubated at 65° C. for 15 mins. 20 mM iodoacetamide (25 μL of a 400 mM stock in water) was then added and allowed to react at 37° C. for 30 mins with shaking. The bead mixture was diluted with 900 μL PBS, pelleted by centrifugation (1,400 g, 3 min), and resuspended in 200 μL 2M urea (DPBS) containing trypsin and CaCl2 as described above. […]
The resulting probe-modified peptides were collected for MS analysis, which was performed as described above with differences in the salt bumps applied in the chromatographic gradients which in this case were 0%, 30%, 60%, 90% and 100% NH4OAc (500 μM). […] The isoTOP ratios for probe labeled peptides were quantified using the in-house software CIMAGE. […]

T1 sequence (Q07812 whole entry): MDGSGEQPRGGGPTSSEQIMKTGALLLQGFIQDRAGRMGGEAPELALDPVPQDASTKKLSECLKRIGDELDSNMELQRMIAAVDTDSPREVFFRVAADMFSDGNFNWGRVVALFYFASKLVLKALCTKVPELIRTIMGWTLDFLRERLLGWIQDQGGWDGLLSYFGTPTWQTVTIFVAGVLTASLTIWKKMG

probe-modified peptide in BAX (groove that binds BH3-domain activators Bim and Bid): aa 66-79
Labeled Peptide (protein BAX (Q07812)): 66-78
Labeled Peptide (protein BAX Apoptosis regulator BAX): 66-78
SMILES: C#CCCC1(CCC(=O)N2CCCCC2Cc2ccccc2)N=N1 (stereo not drawn) [probe 13, 1-(2-Benzylpiperidin-1-yl)-3-(3-(but-3-yn-1-yl)-3H-diazirin-3-yl)propan-1-one]
